# Measured values published in patent US5747467A, “Erythromycins” (Roussel Uclaf, priority 1995, dated 1998).
# Key:
# Type in all cases: cell-based
# [1] = test system: Haemophilus Influenzae 351HT3, 351CB12, 351CA1 and 351GR6; experiment: activity on gram (-) bacterial strains
# Method: (§1) Method of dilutions in liquid medium A series of tubes was prepared into which an equal quantity of sterile nutritive medium was distributed. Increasing quantities of the product to be studied were distributed into each tube and then each tube was seeded with a bacterial strain. After incubation for twenty-four hours in an oven at 37° C., the growth inhibition was evaluated by trans-illumination which allowed the minimal inhibitory concentrations (M.I.C.), expressed in micrograms/cm^3, to be determined.
# [2] = test system: Streptococcus faecium group D 02D3HT1; experiment: M.I.C., dilutions in liquid medium; conditions: Enterococcus faecium, GROUPD02D3HT1, 24 hours at 37° C., read-out: minimal inhibitory concentration (M.I.C.)
# Method: as §1
# [3] = test system: Streptococcus faecalis group D 02D2UC1; experiment: M.I.C., dilutions in liquid medium; conditions: Enterococcus faecalis, GROUPD02D2UC1, 24 hours at 37° C., read-out: minimal inhibitory concentration (M.I.C.)
# Method: as §1
# [4] = test system: Streptococcus mitis 02mitCB1; experiment: M.I.C., dilutions in liquid medium; conditions: 24 hours at 37° C., read-out: minimal inhibitory concentration (M.I.C.)
# Method: as §1
# [5] = test system: Streptococcus pyogenes group A 02A1UC1; experiment: M.I.C., dilutions in liquid medium; conditions: GROUPA02A1UC1, 24 hours at 37° C., read-out: minimal inhibitory concentration (M.I.C.)
# Method: as §1
# [6] = test system: Streptococcus sp group G 02G0GR5; experiment: M.I.C., dilutions in liquid medium; conditions: GROUPG02G0GR5, 24 hours at 37° C., read-out: minimal inhibitory concentration (M.I.C.)
# Method: as §1
# [7] = test system: Staphylococcus aureus 011UC4; experiment: M.I.C., dilutions in liquid medium; conditions: 24 hours at 37° C., read-out: minimal inhibitory concentration (M.I.C.)
# Method: as §1
# [8] = test system: Streptococcus agalactiae group B 02B1HT1; experiment: M.I.C., dilutions in liquid medium; conditions: GROUPB02B1HT1, 24 hours at 37° C., read-out: minimal inhibitory concentration (M.I.C.)
# Method: as §1
# [9] = test system: Staphylococcus epidermidis 012GO11I; experiment: M.I.C., dilutions in liquid medium; conditions: 24 hours at 37° C., read-out: minimal inhibitory concentration (M.I.C.)
# Method: as §1
# [10] = test system: Streptococcus pneumoniae 030SJ5; experiment: M.I.C., dilutions in liquid medium; conditions: 24 hours at 37° C., read-out: minimal inhibitory concentration (M.I.C.)
# Method: as §1
# [11] = test system: Streptococcus mitis 02mitGR16I; experiment: M.I.C., dilutions in liquid medium; conditions: 24 hours at 37° C., read-out: minimal inhibitory concentration (M.I.C.)
# Method: as §1
# [12] = test system: Staphylococcus aureus 011G025I; experiment: M.I.C., dilutions in liquid medium; conditions: 24 hours at 37° C., read-out: minimal inhibitory concentration (M.I.C.)
# Method: as §1
# [13] = test system: Streptococcus agalactiae group B 02B1SJ1; experiment: M.I.C., dilutions in liquid medium; conditions: GROUPB02B1SJ1, 24 hours at 37° C., read-out: minimal inhibitory concentration (M.I.C.)
# Method: as §1
smiles,measurement,setting,value
"CC[C@H]1OC(=O)C(C)(F)C(=O)[C@H](C)[C@@H](O[C@@H]2O[C@H](C)C[C@H](N(C)C)[C@H]2O)[C@](C)(OC)C[C@@H](C)C(=O)[C@H](C)[C@H]2N(CCCCn3cnc4cccnc43)C(=O)O[C@]12C (single isomer, unassigned) [Example 1, 11,12-dideoxy-3-de[(2,6-dideoxy-3-C-methyl-3-0-methyl-α-L-ribohexopyranosyl)-oxy]-2-fluoro-6-0-methyl-3-oxo-12,11-(oxycarbonyl( (4-(3H-imidazo(4,5-b)pyridin-3-yl)-butyl)-imino))-erythromycin]",activity on gram (-) bacterial strains,[1],very useful activity
same,MIC,[2],≤ 0.02 mg/L
same,MIC,[3],0.02 mg/L
same,MIC,[4],≤ 0.02 mg/L
same,MIC,[5],≤ 0.02 mg/L
same,MIC,[6],0.02 mg/L
same,MIC,[7],0.04 mg/L
same,MIC,[8],≤ 0.02 mg/L
same,MIC,[9],0.15 mg/L
same,MIC,[10],0.02 mg/L
same,MIC,[11],≤ 0.02 mg/L
same,MIC,[12],0.08 mg/L
same,MIC,[13],0.08 mg/L
